# Laboratory results as given in patent publication US20260193267A1, “Solid Forms of Naphthyridine Compounds” (AMGEN INC., priority 2023, published 2026).
# Entries after “also recorded” stand apart in the source; their conditions may differ.
# Key:
# [1] = physchem
# Text: Suitable nonlimiting examples of counterions for forming salts with Compound A include benzene sulfonic acid (BSA), toluene sulfonic acid (TSA), sulfuric acid, hydrochloric acid, malonic acid, naphthalene-2-sulfonic acid, methane sulfonic acid, oxalic acid, tartaric acid, ethane sulfonic acid, cyclamic acid, maleic acid, or phosphoric acid.
# [2] = Dynamic vapor sorption (DVS) moisture sorption; type: physicochemical
# Experimental: DVS—Method 1: DVS was measured via a SMS (Surface Measurement Systems) DVS Resolution. The relative humidity at 25° C. was calibrated against the deliquescence point of LiCl, Mg(NO3)2 and KCl.
# DVS—Method 2: Moisture sorption data was collected using a DVS vapor sorption analyzer. A sample size of approximately 10-20 mg was used in a glass or metal pan. Hygroscopicity was evaluated from 40 to 90 to 0 to 90 to 40% RH in increments of 5% RH or from 40 to 0 to 95 to 0 to 95% RH in increments of 10% RH. Data for adsorption and desorption cycles were collected. Equilibrium criteria were set at 0.002% weight change in 1 minute with a maximum equilibration time of 180 minutes.
# [3] = Stability under compression forces representative of tableting; type: physicochemical; settings: compression up to 200 MPa
# [4] = Physical and chemical stability in excipient blends (ssNMR); type: physicochemical; settings: 40° C./75% RH, 25° C./60% RH open, 40° C./75% RH closed
# [5] = Solubility of Form 1 in aqueous media; type: physicochemical; settings: aqueous buffer; aqueous media at pHs of 1-8
pKa [1],change in form on DVS ([2]; 0-95% relative humidity at 25° C.),form change by DSC and XRPD after compression [3],physical and chemical stability by ssNMR [4],solubility [5] [µg/mL],Structure (SMILES),hygroscopicity by DVS ([2]; 0% to 95% relative humidity at 25° C.),degradation related to the Maillard reaction ([4]; after 2 weeks)
4.27,–,–,–,–,Nc1nc2cnc(C(=O)N3CCOC[C@@H]3c3ccc(C(F)(F)F)cc3)cc2c2c1COC2 [Compound A],–,–
–,no observable change in form,no form change,physically and chemically stable,> 10,Nc1nc2cnc(C(=O)N3CCOC[C@@H]3c3ccc(C(F)(F)F)cc3)cc2c2c1COC2 [Form 1],non-hygroscopic; also recorded: non-hygroscopicity,no evidence of degradation related to the Maillard reaction
